In paper PMC4631608 (Journal of structural and functional genomics, 2015):

Target: M. tuberculosis Rv1496 (Mycobacterium tuberculosis, UniProt P9WPZ1)
Sequence (P9WPZ1 3-336): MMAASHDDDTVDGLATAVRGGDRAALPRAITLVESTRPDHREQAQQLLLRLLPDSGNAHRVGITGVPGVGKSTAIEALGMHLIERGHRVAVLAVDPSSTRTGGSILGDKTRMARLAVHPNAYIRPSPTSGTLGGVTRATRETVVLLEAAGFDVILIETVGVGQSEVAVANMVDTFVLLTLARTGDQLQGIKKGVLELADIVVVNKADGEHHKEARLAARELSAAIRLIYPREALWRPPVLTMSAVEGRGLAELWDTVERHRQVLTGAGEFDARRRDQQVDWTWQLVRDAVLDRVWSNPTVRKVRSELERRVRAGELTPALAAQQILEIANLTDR

Nc1nc2c(ncn2[C@@H]2O[C@H](COP(=O)(O)OP(=O)(O)O)[C@@H](O)[C@H]2O)c(=O)[nH]1 [GDP]
X-ray co-crystal structure, 2.45 Å: Rv1496 binds GDP via hydrogen bonds, one salt bridge, and van der Waals interactions
